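Where inhibition never reached the appropriate level, the endpoint shown equals the highest concentration tested. Otherwise, values were interpolated linearly from a five-concentration, 48-hour dose response in 96-well plates. GI50 is the concentration that inhibits growth by half. At the TGI there is no net growth.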
Experiments:
Assay in all cases: NCI-60 cell line screen, 48 h
M14 melanoma = test system: M14 melanoma
TK-10 renal = test system: TK-10 renal
IGROV1 ovarian = test system: IGROV1 ovarian
BT-549 breast = test system: BT-549 breast
HOP-62 NSCLC = test system: HOP-62 NSCLC
SF-539 CNS = test system: SF-539 CNS
SK-MEL-5 melanoma = test system: SK-MEL-5 melanoma
UACC-62 melanoma = test system: UACC-62 melanoma

Structure (SMILES)	GI50 (M14 melanoma) [µM]	TGI (M14 melanoma) [µM]	GI50 (TK-10 renal) [µM]	TGI (TK-10 renal) [µM]	GI50 (IGROV1 ovarian) [µM]	TGI (IGROV1 ovarian) [µM]	GI50 (BT-549 breast) [µM]	TGI (BT-549 breast) [µM]	GI50 (HOP-62 NSCLC) [µM]	TGI (HOP-62 NSCLC) [µM]	GI50 (SF-539 CNS) [µM]	TGI (SF-539 CNS) [µM]	GI50 (SK-MEL-5 melanoma) [µM]	TGI (SK-MEL-5 melanoma) [µM]	GI50 (UACC-62 melanoma) [µM]	TGI (UACC-62 melanoma) [µM]
Cc1cc(NC(=O)c2ccc(NS(=O)(=O)CCO)cc2N2CCC3(CC2)CC3)nc(N2CCC(F)(F)CC2)n1	14.3	28.9	17.7	32.6	16	30.6	0.486	17.9	13.7	30.4	0.0776	16	2.7	19.7	12.3	24.9
Cc1ccc(-c2csc(N(C(=O)N3CCN(c4cc5c(cc4F)c(=O)c(C(=O)O)cn5C4CC4)CC3)c3ccccc3)n2)cc1	0.394	> 100	0.541	11.5	0.338	> 100	0.32	3.31	0.389	> 46.3	–	–	0.541	> 100	–	–
COc1ccc(NC(=O)C(=O)C(CC2C(=O)NC(=S)NC2=O)C(=O)c2ccc3ccccc3c2)c([N+](=O)[O-])c1 (centres undefined)	–	> 100	–	> 100	–	> 100	–	> 100	–	–	–	> 100	–	> 100	–	> 100
COc1ccc(C(=S)c2cc(OC)c(OC)c(OC)c2)cc1OC(=O)CCl	< 0.0125	> 49.6	32.6	> 100	0.0499	> 100	< 0.0175	0.922	0.0614	> 100	< 0.011	0.0499	0.0141	0.0616	0.0391	> 100
Nc1ncc(-c2cnn(C3CCNCC3)c2)cc1-c1nc2ccccc2o1	1.21	2.54	0.924	4.04	0.211	0.891	2.44	10.2	0.915	5.19	1.5	2.83	2.03	5.47	1.6	3.07
CS(=O)(=O)CCNCc1ccc(-c2ccc3ncnc(Nc4ccc(OCc5ccccc5)c(C(F)(F)F)c4)c3c2)o1	5.26	10.4	7.61	22.7	6.36	> 22.2	8.99	> 25	6.16	15.8	4.69	9.88	3.55	6.87	4.76	8.66
O=C1C(=O)c2cc([N+](=O)[O-])ccc2-c2ccccc21	1.97	3.5	1.77	3.19	1.9	3.54	1.83	3.22	–	–	1.82	3.24	1.8	3.2	1.7	3.13
C[C@H]1CCC/C=C/[C@@H]2C[C@H](O)C[C@H]2[C@H](O)[C@H](S(=O)c2ccc(O)cc2)CC(=O)O1 (some centres undefined)	0.033	> 100	0.0392	2.18	0.147	–	0.0472	> 100	0.0855	> 65.6	< 0.0157	> 36.4	–	0.121	0.0349	> 100
COc1ccc(OC)c(/C=C/c2nnc(Nc3ccc(Cl)cc3)o2)c1	20.7	> 100	7.4	83.2	7.69	> 100	–	–	2.71	7.68	11.8	60.5	7.17	> 100	16.2	> 100
O=C1C2CC3C(CC2C(=O)[N]1[Sn]([c]1ccccc1)([c]1ccccc1)[c]1ccccc1)C1(Cl)C(Cl)=C(Cl)C3(Cl)C1(Cl)Cl (centres undefined)	0.15	0.345	0.145	0.288	0.115	0.334	0.185	0.369	0.192	0.427	0.179	0.369	0.145	0.301	0.118	0.288
O=c1[nH]cnc2c(C3OC(CO)C(O)C3O)[nH]nc12 (centres undefined)	–	> 100	–	–	–	> 100	–	> 100	–	> 100	–	> 100	–	> 100	–	> 100
N=c1ccn2c(n1)OC1C(OP(=O)(O)O)C(CO)OC12 (centres undefined)	–	> 45.8	–	> 100	–	> 100	–	> 100	–	> 100	–	> 100	–	> 100	–	> 100
CCCCCCCCN(CCCCCCCC)C(=N)c1ccnc2ccccc12	0.336	1.36	1.44	2.83	–	–	–	–	1.42	2.88	1.54	2.99	–	–	1.25	2.65
CCCCCCCCCCCCCCCCC1=CC(=O)C=C(OC)C1=O	–	> 100	–	> 100	–	> 100	–	–	–	> 100	–	> 100	–	> 100	–	> 100
O=c1ncc(-c2ccc(C(F)(F)F)cc2)c(NC2CCCCCC2)[nH]1	20.4	45.8	35.7	73.9	19.1	40.2	19.5	39	20.3	36.8	15.2	30.1	16.6	30.6	13.8	29.3
C/C(=C\c1ccn(-c2ccc(N)c(C(F)(F)F)c2)n1)[C@@H]1C[C@@H]2O[C@]2(C)CCC[C@H](C)[C@H](O)[C@@H](C)C(=O)C(C)(C)[C@@H](O)CC(=O)O1	–	–	0.0548	16.9	0.0773	> 32.5	0.0221	31.5	0.0212	> 20.3	0.00984	0.593	< 0.0108	3.78	0.0599	> 16.2
CCOC(=O)[C@H](CSSc1ncnc2cc[nH]c12)NC(=O)[C@@H](C)c1ccc2cc(OC)ccc2c1	0.13	> 62.1	0.265	> 59.6	5.08	> 100	0.916	> 100	0.408	> 100	0.478	> 100	2.25	> 32.5	0.425	> 100

— PubChem BioAssay (NCI)
